PubChem BioAssay AID1996
≈ marks a conversion by molar mass, not a printed value.

Settings: buffer; pH 7.4; 200.0 µM

Row | Structure (SMILES) | solubility kinetic
1 | CC1Cc2ccccc2N1NC(=O)c1ccc(Cl)c(S(N)(=O)=O)c1 (stereo unspecified) | > 54.9 µg/mL
2 | CCOC(=O)CNc1nc(Cl)nc(Nc2ccc(C)cc2)n1 | 0.5 µg/mL (≈ 1.55 µM)
3 | O=C(COC(=O)c1ccncc1)Nc1cccc2ccccc12 | 40.3 µg/mL (≈ 132 µM)
4 | O=C(Nc1cccc([N+](=O)[O-])c1)C1COc2ccccc2O1 (stereo unspecified) | 5.4 µg/mL (≈ 18 µM)
5 | CNc1nc(N)c([N+](=O)[O-])c(Nc2cccc(Cl)c2)n1 | 0.4 µg/mL (≈ 1.36 µM)
6 | Oc1c(Cl)cc(CN2CCOCC2)c2cccnc12 | 33.6 µg/mL (≈ 121 µM)
7 | Cc1cc(NC(=O)NCC(F)(F)F)no1 | > 33.5 µg/mL
8 | O=C(Cn1c(NCCO)nc2ccccc21)NCC1CCCO1 (stereo unspecified) | > 47.8 µg/mL
9 | COCCCNC(=S)Nc1cccc(SC)c1 | > 40.6 µg/mL
10 | CC1CC(C)(C)CC2(C1)NC(=O)N(CC(=O)N1CCN(S(=O)(=O)c3cccc(F)c3)CC1)C2=O (stereo unspecified) | 4.9 µg/mL (≈ 9.91 µM)
11 | COc1cccc(OC)c1CNC(=O)CCSCc1ccccc1F | 37.3 µg/mL (≈ 103 µM)
12 | O=[N+]([O-])/C(C(Cl)=C(Cl)Cl)=C1\Nc2ccccc2O1 | > 46.1 µg/mL
13 | CC(O)c1ccc(OCCN(C)c2ccccn2)cc1 (stereo unspecified) | > 40.9 µg/mL
14 | O=[N+]([O-])c1ccccc1O[C@@H]1O[C@H](CO)[C@H](O)[C@H](O)[C@H]1O | > 45.2 µg/mL
15 | O=C(c1cc2cc([N+](=O)[O-])ccc2oc1=O)N1CCN(C2CCCCC2)CC1 | > 57.8 µg/mL
16 | Fc1ccc(NC(=S)NCc2cccnc2)cc1 | > 39.2 µg/mL
17 | CCCCN(C(=O)C1CCCC1)c1c(N)n(Cc2ccccc2)c(=O)[nH]c1=O | 3.6 µg/mL (≈ 9.36 µM)
18 | CCCOc1cccc(C(=O)NCCNC(=O)c2ccccn2)c1 | > 49.1 µg/mL
19 | Cn1cc(C(=O)Nc2ccccn2)c(=O)c2ccccc21 | 1.3 µg/mL (≈ 4.65 µM)
20 | CN(C)/C=C1\C(=O)Oc2ccccc2C1=O | 32.4 µg/mL (≈ 149 µM)
21 | CC(C)c1ccc(N2C=Nc3ccc(C(C)C)cc3C2)cc1 | 2.8 µg/mL (≈ 9.58 µM)

Row | Structure (SMILES) | solubility kinetic
22 | O=C(CN1CCc2ccccc2C1)Nc1ccc(OC(F)(F)F)cc1 | 0.9 µg/mL (≈ 2.57 µM)
23 | COC(=O)CNC(=O)COC(=O)c1cc(SC)ccc1Cl | > 49.8 µg/mL
24 | Cc1nc2ccccc2c2c1C(=O)NC2=O | > 31.8 µg/mL
25 | O=C(NCCNCc1cccs1)c1ccccc1F | 37.6 µg/mL (≈ 135 µM)
26 | COCCCN1C(=O)CS/C1=N\S(=O)(=O)c1ccccc1 | > 49.3 µg/mL
27 | Cc1ccccc1C(=O)NCCNC(=O)c1ccccn1 | 39.3 µg/mL (≈ 139 µM)
28 | CCC(=O)Nc1c(-c2ccc(C)cc2)nc2ccc(C)cn12 | 30.4 µg/mL (≈ 104 µM)
29 | CCOc1ccc2c(c1)nc(C)n2C | > 28.5 µg/mL
30 | Cc1ccc(N2C(=O)CC(Sc3nc(C)cc(C)n3)C2=O)cc1 (stereo unspecified) | 34.7 µg/mL (≈ 106 µM)
31 | O=C(Nc1ccc2ncccc2c1)c1ccccc1Br | 3.3 µg/mL (≈ 10.1 µM)
32 | COc1ccc(C(=O)CNc2ccc3ccccc3c2)cc1 | 2.6 µg/mL (≈ 8.92 µM)
33 | CCOC(=O)c1c(O)cc(C)[nH]c1=O | > 29.6 µg/mL
34 | O=C(NN1CCOCC1)c1ccccc1 | > 30.9 µg/mL
35 | COc1cccc(/C=C2\SC(=S)N(c3cccnc3)C2=O)c1OC | < 0.4 µg/mL
36 | COc1ccc(-n2ccc(=O)c(C(=O)O)n2)cc1 | > 36.9 µg/mL
37 | Cc1c(-c2cccc(Cl)c2)nc2ccccc2c1C(=O)NC1CC1 | > 50.5 µg/mL
38 | CC1C(Br)C(=O)NC(=O)N1Cc1ccccc1 (stereo unspecified) | 41.4 µg/mL (≈ 139 µM)
39 | CCC(C)NC(=O)N1c2ccccc2Sc2ccccc21 (stereo unspecified) | 28 µg/mL (≈ 93.8 µM)
40 | CC1(C)CC(=O)C=C(Nc2ccc(F)c(Cl)c2)C1 | > 40.2 µg/mL
41 | Fc1cc(Br)ccc1NC(=S)Nc1cccnc1 | 44.8 µg/mL (≈ 137 µM)
42 | C=CCN(Cc1nc(-c2ccccc2)no1)C(=O)c1ccc2c(c1)OCO2 | 21.1 µg/mL (≈ 58.1 µM)

Row | Structure (SMILES) | solubility kinetic
43 | Cl.NCCN1C(=O)S/C(=C\c2ccc3c(c2)OCO3)C1=O | > 49.3 µg/mL
44 | Cc1ccc2c(c1)N(CC(=O)NC1CCCC1)C(=O)CO2 | > 43.3 µg/mL
45 | Cc1ccsc1C(=O)NCCc1ccco1 | 33.5 µg/mL (≈ 142 µM)
46 | CC1(C)CC(=O)C2=C(C1)NC(=S)C(C#N)C21CCCCC1 (stereo unspecified) | > 45.4 µg/mL
47 | COCc1nc2ccccc2n1Cc1c(F)cccc1Cl | > 45.7 µg/mL
48 | COc1nc(C)ccc1-c1noc(-c2cccs2)n1 | 2.5 µg/mL (≈ 9.15 µM)
49 | O=C(CNC(=O)c1ccc(F)cc1)Nc1ccccc1C(F)(F)F | 16.2 µg/mL (≈ 47.6 µM)
50 | CCCCCOc1ccccc1C(=O)NCCCCCC(=O)O | > 48.2 µg/mL
51 | CC(C)(CNc1ccc([N+](=O)[O-])cc1C#N)N1CCOCC1 | 8.1 µg/mL (≈ 26.6 µM)
52 | C/C(CC(C)C)=N\Oc1nc(C)cc(C)n1 | > 33.2 µg/mL
53 | CC(OC(=O)c1ccc(NC(=O)CC#N)cc1)C(=O)NC(c1ccccc1)c1ccccc1 (stereo unspecified) | 8.5 µg/mL (≈ 19.3 µM)
54 | N#Cc1ccc(Cn2c(=O)oc3ccccc32)cc1 | 6 µg/mL (≈ 24 µM)
55 | O=C(CN1CCCC1)Nc1ccc(Br)cc1[N+](=O)[O-] | 20.3 µg/mL (≈ 61.9 µM)
56 | COc1ccc(OCCN2CCOCC2)cc1 | 30.9 µg/mL (≈ 130 µM)
57 | CC(=O)C1=C(O)C(=O)N(c2cccnc2)C1c1cccc([N+](=O)[O-])c1 (stereo unspecified) | > 50.9 µg/mL
58 | CN(C(=O)CN1C(=O)NC2(CCc3ccccc32)C1=O)C1CCCCC1 (stereo unspecified) | > 53.3 µg/mL
59 | Cc1cc(Sc2ncnc(N)c2[N+](=O)[O-])ncn1 | > 39.6 µg/mL
60 | COc1ccc(OCC(=O)Nc2ccc(N3CCC(C)CC3)cc2)cc1 | < 0.4 µg/mL
61 | CCC(Oc1ccccc1)C(=O)NC1CCCCCC1 (stereo unspecified) | 28.3 µg/mL (≈ 103 µM)
